The values below come from patent publication US9288983B2, “Compositions of dibromomalonamide and their use as biocides” (Dow Global Technologies LLC, priority 2009, dated 2016).

Test [1] relates to mixture of Pseudomonas aeruginosa, Klebsiella pneumoniae, Staphylococcus aureus, and Bacillus subtilis. The test is described as follows: Growth inhibition assay (microtiter plate, OD580). Particulars: for inhibition at 0.39 µg/mL / inhibition at 0.78 µg/mL / inhibition at 1.56 µg/mL / inhibition at 3.13 µg/mL / inhibition at 6.25 µg/mL / inhibition at 12.5 µg/mL / inhibition at 25 µg/mL / % Inhibition of growth by single active: 24 h; for inhibition at 0.39 µg/mL / inhibition at 0.78 µg/mL / inhibition at 1.56 µg/mL / inhibition at 3.13 µg/mL / inhibition at 6.25 µg/mL / inhibition at 12.5 µg/mL / inhibition at 25 µg/mL: read-out: % Inhibition of growth by single active; for I90 value: 24 hr. It is filed as cell-based. The source says: Growth Inhibition Assay. […] Regardless of the mechanism of action, the impact of a biocide (or combination of biocides) can be measured over time on the basis of an increase in the size of the community.
The assay measures the efficacy of one or more biocides at preventing growth of a consortium of bacteria in a dilute mineral salts medium. The medium contains (in mg/l) the following components: FeCl3.6H2O (1); CaCl2.2H2O (10); MgSO4.7H2O (22.5); (NH4)2SO4 (40); KH2PO4 (10); K2HPO4 (25.5); Yeast Extract (10); and glucose (100). After all components are added to deionized water, the pH of the medium is adjusted to 7.5. Following filter sterilization, aliquots are dispensed in 100 ul quantities to sterile microtiter plate wells. Dilutions of DBMAL and/or “Biocide B” are then added to the microtiter plate. After preparing the combinations of actives as illustrated below, each well is inoculated with 100 μl of a cell suspension containing ca. […] cells per milliliter of a mixture of Pseudomonas aeruginosa, Klebsiella pneumoniae, Staphylococcus aureus, and Bacillus subtilis. The final total volume of medium in each well is 300 μl. Once prepared as described herein, the concentration of each active ranges from 25 ppm to 0.19 ppm as illustrated in Table 1. The resulting matrix allows testing of eight concentrations of each active and 64 combinations of actives in the ratios (of actives).
Controls (not shown) contain the medium with no biocide added. After preparing the combinations of actives as illustrated above, each well is inoculated with 100 μl of a cell suspension containing ca. […] cells per milliliter of a mixture of Pseudomonas aeruginosa, Klebsiella pneumoniae, Staphylococcus aureus, and Bacillus subtilis. The final total volume of medium in each well is 300 μl.
Immediately after the microtiter plates are prepared, the optical density (OD) readings for each well is measured at 580 nm and the plates are then incubated at 37° C. for 24 hr. After the incubation period, the plates are gently agitated before OD580 values are collected. The OD580 values at T0 are subtracted from T24 values to determine the total amount of growth (or lack thereof) that occurs. These values are used to calculate the percent inhibition of growth caused by the presence of each biocide and each of the 64 combinations.
where • CDBMAL: Concentration of DBMAL required to inhibit ˜90% of bacterial growth when used alone • CB: Concentration of biocide (B) required to inhibit ˜90% of bacterial growth when used alone. • MDBMAL: Concentration of DBMAL required to inhibit ˜90% of bacterial growth when used in combination with biocide (B). • MB: Concentration of biocide (B) required to inhibit ˜90% of bacterial growth when used in combination with DBMAL
(§1) The SI values are interpreted as follows: • SI<1: Synergistic combination • SI=1: Additive combination • SI>1: Antagonistic combination
(§2) In the Examples below, the amounts of biocides in the solution are measured in mg per liter of solution (mg/l). Since solution densities are approximately 1.0, the mg/l measurement corresponds to weight ppm. Both units may therefore be used interchangeably in the Examples.

The subject of test [2] is mixture of Pseudomonas aeruginosa ATCC 10045 and Staphylococcus aureus ATCC 6538. Kind of test: Kill assay (minimum biocide concentration, MBC). It is filed as cell-based. To be noted: single active, 37° C., 2 hours. How it is done:
The procedure is as follows.
as §1, §2

SMILES strings stand for the structures. Read-outs that look alike come from different tables or passages of the source. Some results are limits rather than exact numbers.

One may read the inhibition as the drop in the measured response relative to a control, in per cent. For the compound `N#CCCC(Br)(C#N)CBr` (stereo not drawn) [DBDCB, 1,2-Dibromo-2,4-dicyanobutane], the inhibition at 0.39 µg/mL in test [1] (Table 9, 0.39 mg/l alone) turned out to be 0%. Besides, in test [1] (Table 9, 0.78 mg/l alone), the inhibition at 0.78 µg/mL turned out to be 0%. In addition, the inhibition at 1.56 µg/mL in test [1] (Table 9, 1.56 mg/l alone) is 17%. The inhibition at 3.13 µg/mL in test [1] (Table 9, 3.13 mg/l alone) was found to be 43%. In test [1] (Table 9, 6.25 mg/l alone), the inhibition at 6.25 µg/mL is 100%. The inhibition at 12.5 µg/mL in test [1] (Table 9, 12.5 mg/l alone) is 99%. Besides, the inhibition at 25 µg/mL in test [1] (Table 9, 25.0 mg/l alone) was 97%. Moreover, the I90 value in test [1] (Example 4, single active) turned out to be 6.25 mg/L.
For the compound `N#CSCSC#N` [MBT, methylene bis(thiocyanate)], the I90 value in test [1] (Example 3, single active) is 0.78 mg/L. Also, in test [1] (Table 7, 0.39 mg/l alone), the “% Inhibition of growth by single active” value is given as 24%.
With `O=[N+]([O-])C(Br)=Cc1ccccc1` [BNS, bromonitrostyrene], the I90 value in test [1] (Example 2, single active) is 6.25 mg/L. In addition, the “% Inhibition of growth by single active” value in test [1] (Table 5, 0.78 mg/l alone) came to 19%; in test [1] (Table 5, 1.56 mg/l alone) it was 42%; in test [1] (Table 5, 3.13 mg/l alone) it was 75%.
Consider `NC(=O)C(Br)(Br)C(N)=O` [DBMAL, 2,2-dibromomalonamide], for which the “MBC (minimum biocide concentration needed to completely kill the bacterial cells), biocide alone” value in test [2] worked out at 66.7 µg/mL. The inhibition at 0.39 µg/mL was 8% in test [1] (Table 3, 0.39 mg/l alone); 1% in test [1] (Table 5, 0.39 mg/l alone); 23% in test [1] (Table 7, 0.39 mg/l alone). For the same compound, the inhibition at 0.78 µg/mL in test [1] (Table 3, 0.78 mg/l alone) worked out at 12%; in test [1] (Table 7, 0.78 mg/l alone), 58%; in test [1] (Table 9, 0.78 mg/l alone) it was 11%. Besides, the inhibition at 1.56 µg/mL in test [1] (Table 3, 1.56 mg/l alone) came out at 13%; in test [1] (Table 7, 1.56 mg/l alone) it was 52%; in test [1] (Table 9, 1.56 mg/l alone), 14%. In addition, the inhibition at 3.13 µg/mL was 17% in test [1] (Table 3, 3.13 mg/l alone); 34% in test [1] (Table 5, 3.13 mg/l alone); 61% in test [1] (Table 7, 3.13 mg/l alone); 20% in test [1] (Table 9, 3.13 mg/l alone). Further, the inhibition at 12.5 µg/mL in test [1] (Table 3, 12.5 mg/l alone) is 97%. Besides, the inhibition at 6.25 µg/mL in test [1] (Table 5, 6.25 mg/l alone) was found to be 65%; in test [1] (Table 7, 6.25 mg/l alone), 41%; in test [1] (Table 9, 6.25 mg/l alone), 100%. In addition, the inhibition at 25 µg/mL in test [1] (Table 5, 25.0 mg/l alone) came out at 98%; in test [1] (Table 7, 25.0 mg/l alone), 98%. The I90 value in test [1] (Example 2, single active) was determined as 12.5 mg/L; in test [1] (Example 3, single active), 12.5 mg/L; in test [1] (Example 4, single active) it was 6.25 mg/L.
Turning to `O=[N+]([O-])C(Br)(CO)CO` [Bronopol, 2-bromo-2-nitropropane-1,3-diol], the “MBC (minimum biocide concentration needed to completely kill the bacterial cells), biocide alone” value in test [2] is above 150 µg/mL. The inhibition at 0.39 µg/mL in test [1] (Table 3, 0.39 mg/l alone) stood at 0%. Besides, the inhibition at 0.78 µg/mL in test [1] (Table 3, 0.78 mg/l alone) is 0%. Further, in test [1] (Table 3, 1.56 mg/l alone), the inhibition at 1.56 µg/mL was 0%. For the same compound, the inhibition at 3.13 µg/mL in test [1] (Table 3, 3.13 mg/l alone) was 67%. Moreover, the inhibition at 6.25 µg/mL in test [1] (Table 3, 6.25 mg/l alone) was found to be 96%. In addition, in test [1] (Table 3, 12.5 mg/l alone), the inhibition at 12.5 µg/mL is 99%. For the same compound, the inhibition at 25 µg/mL in test [1] (Table 3, 25.0 mg/l alone) turned out to be 97%.
